In PMC11371747, “The role of l-leucovorin uptake and metabolism in the modulation of 5-fluorouracil efficacy and antifolate toxicity” (Frontiers in Pharmacology, 2024):
Like-named read-outs stand apart in the source and are kept apart here.

Tests used:
CHO/C5-MOCK cells = assay: Growth inhibition, SRB assay, CHO/C5-MOCK (empty vector); format: cell-based, Chinese hamster
Description: (§1) Briefly, cells were seeded in triplicate in 96-well plates at their pre-established optimal density (CHO cells: 2,500 cells/100 μL; WiDr and HT29: 3,500 cells/100 μL; WiDr-LF/LV, LS174T: 5,000 cells/100 μL; CaCo2, CaCo2-LF/LV, H292, H28 and MSTO-211H: 6,000 cells/100 μL; H460, SW948 and SW1398: 7,000 cells/100 μL) and were allowed to attach for ∼ 24 h at 37°C in 5% CO2 and 100% humidified incubator. Thereafter, 100 μL of drug dilution without LV, or with 5 μM l-LV/5 μM d-LV/10 μM dL-LV (or any LV alone) were added. Cells were allowed to grow for 72 h at 37°C in 5% CO2 and 100% humidity. The t = 0 h control plate consisted of cells plated on the same day as the other cells, but after 24 h at 37°C in 5% CO2 and 100% humidity, only 100 μL medium was added and the cells were fixed immediately with 50% trichloroacetic acid (TCA) in milliQ water (25 μL per well) and put at 4°C for at least 1 h. Plates were washed five times with water and dried. Cells were stained with the SRB protein dye (0.4% (w/v) in 1% acetic acid. Excess dye was washed away four times with 1% acetic acid and plates were dried again. 200 μL of Tris (10 mM Tris (hydroxymethyl)-aminomethane in MQ) was added and optical density (OD) was read at 492 nm after mixing 2–3 min on a plate shaker.

CHO/C5-hRFC cells = assay: Growth inhibition, SRB assay, CHO/C5-hRFC (human RFC transfected); format: cell-based, Chinese hamster; conditions: for IC50: CHO/C5-hRFC; for Protection by l-LV, increase of the IC50 value: hRFC-transfected cells, 5 µM l-LV
Description: as §1

[1] = target: T1, reduced folate carrier (RFC/SLC19A1) (Homo sapiens, UniProt P41440); assay: Inhibition of RFC-mediated [3H]-l-LV influx in CEM-7A cells; format: cell-based
T1 construct: CEM-7A cells, which display 30-fold RFC overexpression relative to wild-type CCRF-CEM cells; endogenous in cells; host or cells: CEM-7A (CCRF-CEM variant, RFC+++ 30-fold)
T1 sequence (P41440 1-591): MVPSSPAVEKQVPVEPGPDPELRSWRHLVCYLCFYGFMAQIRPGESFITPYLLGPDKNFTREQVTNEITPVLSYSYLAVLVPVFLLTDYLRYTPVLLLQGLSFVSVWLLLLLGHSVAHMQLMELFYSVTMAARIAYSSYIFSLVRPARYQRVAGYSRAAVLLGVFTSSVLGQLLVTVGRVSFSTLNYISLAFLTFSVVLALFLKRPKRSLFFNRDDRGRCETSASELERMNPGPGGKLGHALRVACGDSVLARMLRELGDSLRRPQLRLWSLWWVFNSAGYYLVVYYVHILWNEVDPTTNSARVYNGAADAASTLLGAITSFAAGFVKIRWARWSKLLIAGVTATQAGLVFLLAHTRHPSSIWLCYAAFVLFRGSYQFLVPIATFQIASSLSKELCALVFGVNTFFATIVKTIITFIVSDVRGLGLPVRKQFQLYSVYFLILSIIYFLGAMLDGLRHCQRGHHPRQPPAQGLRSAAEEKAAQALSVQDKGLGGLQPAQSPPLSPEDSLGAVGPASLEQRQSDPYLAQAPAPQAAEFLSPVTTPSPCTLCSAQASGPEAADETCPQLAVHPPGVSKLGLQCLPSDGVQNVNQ
Description: In order to determine whether the LV isomers were substrates for either folate receptor α (FRα), RFC and/or PCFT, we used model systems with established overexpression of these receptors or transporters ([Westerhof et al., 1995a]; [Westerhof et al., 1995b]; [Lasry et al., 2008]; [Van der Heijden et al., 2009]).
CEM-7A cells (2 × 10^6) were suspended in 1 mL HBSS and the assay was initiated by addition of 25 μL 200 μM [^3H]-l-LV; 5,000 pmol (i.e., 5 μM final concentration). Incubations proceeded for 2 min at 37°C in the absence and presence of increasing amounts of unlabelled LV/antifolate drug. Blanks consisted of a separate incubation at 4°C or incubation with 100-fold molar excess of unlabelled l-LV. [^3H]-l-LV influx was terminated by adding 9 mL ice-cold HBSS, centrifugation and an additional wash of the cells with 10 mL ice-cold buffer. Cell pellets were then assessed for radioactivity. Relative affinities for RFC are expressed as the concentration of unlabelled drug necessary to inhibit [^3H]-l-LV uptake by 50%.

AA8 cells = assay: Growth inhibition, SRB assay, AA8 (parental CHO); format: cell-based, Chinese hamster; conditions: for IC50: AA8 parental CHO
Description: as §1

CHO/C5 cells = assay: Growth inhibition, SRB assay, CHO/C5 (RFC-deficient); format: cell-based, Chinese hamster
Description: as §1

CHO/C5-PCFT cells = assay: Growth inhibition, SRB assay, CHO/C5-PCFT (PCFT-transfected); format: cell-based, Chinese hamster
Description: as §1

H460 cells = assay: Growth inhibition, SRB assay, H460 (NSCLC); format: cell-based, human; conditions: H460, SRB, read-out: IC50, 72 h drug exposure
Description: as §1

MSTO-211H cells = assay: Growth inhibition, SRB assay, MSTO-211H (MPM); format: cell-based, human; conditions: SRB, read-out: IC50, 72 h drug exposure
Description: as §1

H292 cells = assay: Growth inhibition, SRB assay, H292 (NSCLC); format: cell-based, human; conditions: H292, SRB, read-out: IC50, 72 h drug exposure
Description: as §1

H28 cells = assay: Growth inhibition, SRB assay, H28 (MPM); format: cell-based, human; conditions: H28, SRB, read-out: IC50, 72 h drug exposure
Description: as §1

[2] = Cricetulus griseus, antifolate alone

SMILES	IC50 (CHO/C5-MOCK cells; [2]) [µM]	IC50 (CHO/C5-MOCK cells; antifolate + 5 µM l-LV) [µM]	IC50 (CHO/C5-hRFC cells; antifolate + 5 µM l-LV) [µM]	IC50 (CHO/C5-hRFC cells; [2]) [µM]	Protection by l-LV, increase of the IC50 value (CHO/C5-hRFC cells) [fold]	IC50 (AA8 cells; antifolate + 5 µM l-LV) [µM]	IC50 (AA8 cells; [2]) [µM]	IC50 (CHO/C5 cells; [2]) [µM]	IC50 (CHO/C5 cells; antifolate + 5 µM l-LV) [µM]	IC50 (CHO/C5-PCFT cells; [2]) [µM]	IC50 (CHO/C5-PCFT cells; antifolate + 5 µM l-LV) [µM]	other results
CN(Cc1cnc2nc(N)nc(N)c2n1)c1ccc(C(=O)N[C@@H](CCC(=O)O)C(=O)O)cc1 [MTX, methotrexate]	6.67	> 100	1.45	0.02	72	6.6	0.038	8.93	> 100	3.39	41	50% inhibition of [3H]-l-LV influx (RFC), fold higher concentration than l-LV [1]: 3 fold; Fold less active than PLX (AA8 cells; AA8 cells): 10 fold
Cc1nc2ccc(CN(C)c3ccc(C(=O)N[C@@H](CCC(=O)O)C(=O)O)s3)cc2c(=O)[nH]1 [RTX, raltitrexed]	2.4	> 100	11.7	0.008	1462	2.92	0.019	2.73	6.68	4.33	52.6	IC50 (H460 cells; antifolate + 5 µM l-LV): 19.8 µM; IC50 (H460 cells; Homo sapiens, NCI-H460, 72 h, antifolate alone): 0.022 ± 0.0009 µM; IC50 (MSTO-211H cells; Homo sapiens, 72 h, antifolate alone): 0.008 ± 0.0005 µM; IC50 (MSTO-211H cells; antifolate + 5 µM l-LV): 4.58 µM; IC50 (H292 cells; antifolate + 5 µM l-LV): 6.33 µM; IC50 (H292 cells; Homo sapiens, NCI-H292, 72 h, antifolate alone): 0.014 ± 0.0008 µM; IC50 (H28 cells; antifolate + 5 µM l-LV): 4.26 µM; IC50 (H28 cells; Homo sapiens, NCI-H28, 72 h, antifolate alone): 0.136 ± 0.016 µM
